Results as given in ChEMBL document CHEMBL1201862, “PubChem BioAssay data set” (2004).
Active and inactive are the calls of the source.

What was measured:
Hexokinase = Hexokinase (Trypanosoma brucei, UniProt Q38C41); test: Confirmation assay for inhibitors of Trypanosoma brucei hexokinase 1-Analogue-first series. [Related pubchem assays (depositor defined):AID1430, AID1632, AID2516, AID2560, AID2579, AID2600, AID449725, AID492951]; assay type: functional
[1] = target: Glucose-6-phosphate 1-dehydrogenase (Homo sapiens, UniProt P11413); test: inhibition of Homo sapiens G6PD, dose series – biochemical, fluorescence, selectivity assay for P. falciparum G6PD inhibitor project, dose response (AID 504792); assay type: functional
[2] = Fluorescence-based cell-based high throughput dose response assay for inhibitors of the interaction of nucleotide-binding oligomerization domain containing 2 (NOD2) and the receptor-interacting serine-threonine kinase 2 (RIPK2).; assay type: functional; settings: Homo sapiens
[3] = target: T1, Mannose-6-phosphate isomerase (Homo sapiens, UniProt P34949); test: phosphomannose isomerase inhibition – biochemical, fluorescence intensity, confirmation (AID 1535)
T1 sequence (P34949 whole entry): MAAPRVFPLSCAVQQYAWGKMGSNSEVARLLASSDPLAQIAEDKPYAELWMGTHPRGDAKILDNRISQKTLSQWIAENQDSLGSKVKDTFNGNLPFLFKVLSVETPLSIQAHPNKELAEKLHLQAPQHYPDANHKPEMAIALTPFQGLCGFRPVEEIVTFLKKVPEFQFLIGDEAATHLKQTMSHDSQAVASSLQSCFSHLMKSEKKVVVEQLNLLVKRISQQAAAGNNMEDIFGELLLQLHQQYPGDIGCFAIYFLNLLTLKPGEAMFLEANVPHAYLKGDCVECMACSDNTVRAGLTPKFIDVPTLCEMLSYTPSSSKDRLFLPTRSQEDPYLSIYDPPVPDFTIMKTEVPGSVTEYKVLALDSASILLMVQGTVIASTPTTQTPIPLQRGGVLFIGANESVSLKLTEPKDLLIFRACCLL

Phosphomannomutase 2 = Phosphomannomutase 2 (Homo sapiens, UniProt O15305); test: Counter screen SAR assay for PMM2 inhibitors via a fluorescence intensity assay. [Related pubchem assays (depositor defined):AID1545, AID1574]
[4] = target: T2, Alkaline phosphatase, tissue-nonspecific isozyme (Homo sapiens, UniProt P05186); test: potency against alkaline phosphatase TNAP – biochemical, luminescent, dose response, SAR follow-up (AID 1056)
T2 sequence (P05186 whole entry): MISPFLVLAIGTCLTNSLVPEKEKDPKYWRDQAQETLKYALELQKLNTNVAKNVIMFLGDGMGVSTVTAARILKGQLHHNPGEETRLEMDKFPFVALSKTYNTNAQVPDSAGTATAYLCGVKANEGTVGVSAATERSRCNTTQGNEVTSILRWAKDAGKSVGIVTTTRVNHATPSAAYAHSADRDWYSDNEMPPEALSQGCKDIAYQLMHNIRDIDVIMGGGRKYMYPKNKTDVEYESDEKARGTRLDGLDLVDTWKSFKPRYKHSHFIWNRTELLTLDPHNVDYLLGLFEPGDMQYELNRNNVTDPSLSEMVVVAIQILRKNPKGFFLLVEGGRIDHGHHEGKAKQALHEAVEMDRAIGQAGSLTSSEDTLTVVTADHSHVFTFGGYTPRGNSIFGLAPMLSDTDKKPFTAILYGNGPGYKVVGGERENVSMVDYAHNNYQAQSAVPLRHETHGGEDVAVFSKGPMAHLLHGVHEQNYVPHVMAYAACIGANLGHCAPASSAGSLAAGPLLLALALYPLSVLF

[5] = target: Alkaline phosphatase, placental type (Homo sapiens, UniProt P05187); test: human placental alkaline phosphatase inhibition – biochemical, luminescence, confirmation (AID 1512); assay type: functional
[6] = target: Voltage-dependent T-type calcium channel subunit alpha-1H (Homo sapiens, UniProt O95180); test: human CACNA1H calcium influx blockade – cell-based, synthetic library set 1, calcium flux (AID 493022); assay type: functional
[7] = target: T3, Replicative DNA helicase DnaB (Mycobacterium tuberculosis, UniProt P9WMR3); test: DnaB intein splicing inhibitors, dose response, biochemical, cell-free fluorescence (AID 449749); assay type: functional
T3 sequence (P9WMR3 whole entry): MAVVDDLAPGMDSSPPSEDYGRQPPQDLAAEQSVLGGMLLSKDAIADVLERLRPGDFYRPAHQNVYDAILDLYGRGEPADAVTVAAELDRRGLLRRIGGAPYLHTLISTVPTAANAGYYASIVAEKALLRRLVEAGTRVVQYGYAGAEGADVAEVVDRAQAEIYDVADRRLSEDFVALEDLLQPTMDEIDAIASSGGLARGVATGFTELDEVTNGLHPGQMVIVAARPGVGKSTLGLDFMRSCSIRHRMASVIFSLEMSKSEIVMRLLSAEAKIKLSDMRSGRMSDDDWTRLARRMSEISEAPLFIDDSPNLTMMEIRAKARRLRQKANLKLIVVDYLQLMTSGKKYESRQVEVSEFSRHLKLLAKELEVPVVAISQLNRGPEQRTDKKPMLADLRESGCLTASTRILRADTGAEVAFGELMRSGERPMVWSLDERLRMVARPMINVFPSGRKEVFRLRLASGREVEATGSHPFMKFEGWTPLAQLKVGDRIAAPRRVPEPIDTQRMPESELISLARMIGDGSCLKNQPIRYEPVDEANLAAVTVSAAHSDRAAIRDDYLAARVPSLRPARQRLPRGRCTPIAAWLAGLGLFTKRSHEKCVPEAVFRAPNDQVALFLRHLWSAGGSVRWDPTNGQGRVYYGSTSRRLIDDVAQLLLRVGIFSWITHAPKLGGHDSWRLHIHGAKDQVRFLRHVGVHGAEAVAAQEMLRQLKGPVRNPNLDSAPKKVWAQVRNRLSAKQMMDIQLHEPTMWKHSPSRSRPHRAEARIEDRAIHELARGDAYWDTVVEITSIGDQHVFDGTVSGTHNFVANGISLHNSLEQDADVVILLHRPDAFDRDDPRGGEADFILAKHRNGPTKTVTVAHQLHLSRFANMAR

[8] = viability of uninfected HEp-2 cells – cell-based, HTS, cytotoxicity control for RSV inhibitor project, dose response (AID 2410); assay type: functional; settings: human respiratory syncytial virus
Streptococcus = test: GAS UMAA2166 growth inhibition – luminescence, BacTiterGlo, counter-screen for streptokinase expression inhibitor project, dose response (AID 1915); assay type: functional, organism-based;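 further: potency for reduction of bacterial viability or growth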
[9] = tested on: Streptococcus sp. 'group A'; test: Streptococcus pyogenes SK(-)GAS viability under kanamycin – luminescence, BacTiterGlo, confirmation, counter-screen for streptokinase expression inhibitor project, dose response (AID 1900); assay type: functional, organism-based
Streptokinase A = target: T4, Streptokinase A (Streptococcus pyogenes serotype M1, UniProt P10520); test: viability-normalized secreted streptokinase activity reduction – plasminogen activation absorbance, OD405, dose response (AID 1914); assay type: functional, Streptococcus pyogenes M1 GAS;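 further: secreted streptokinase activity via plasminogen activation per viability signal from cell pellet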
T4 sequence (P10520 whole entry): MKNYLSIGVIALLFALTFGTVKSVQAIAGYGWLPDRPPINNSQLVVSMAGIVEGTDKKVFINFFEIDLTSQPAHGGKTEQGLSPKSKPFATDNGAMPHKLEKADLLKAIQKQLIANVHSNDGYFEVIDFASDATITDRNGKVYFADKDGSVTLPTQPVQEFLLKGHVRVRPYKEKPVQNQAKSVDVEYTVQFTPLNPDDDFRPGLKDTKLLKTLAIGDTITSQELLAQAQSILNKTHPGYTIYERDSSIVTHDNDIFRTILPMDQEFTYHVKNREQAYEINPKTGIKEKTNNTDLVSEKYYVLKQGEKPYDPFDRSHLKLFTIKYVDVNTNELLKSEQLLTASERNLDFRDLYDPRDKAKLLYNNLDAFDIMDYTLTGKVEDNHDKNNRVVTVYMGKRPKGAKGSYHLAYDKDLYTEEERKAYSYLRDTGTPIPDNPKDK

[10] = target: G-protein coupled receptor 55 (Homo sapiens, UniProt Q9Y2T6); test: inhibition of LPI-stimulated GPR55 beta-arrestin translocation – imaging, U2OS, beta-arrestin-GFP, LPI agonist, primary screen (AID 2013); assay type: functional;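 further: antagonist potency measured as reduced agonist-driven arrestin aggregation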
Protein RecA = target: T5, Protein RecA (Mycobacterium tuberculosis, UniProt P9WHJ3); test: Fluorescence Cell-Free Homogeneous Dose Retest to Identify Inhibitors of RecA-Intein Splicing Activity. [Related pubchem assays (depositor defined):AID2097, AID2223, AID489010, AID492950]; assay type: functional
T5 sequence (P9WHJ3 whole entry): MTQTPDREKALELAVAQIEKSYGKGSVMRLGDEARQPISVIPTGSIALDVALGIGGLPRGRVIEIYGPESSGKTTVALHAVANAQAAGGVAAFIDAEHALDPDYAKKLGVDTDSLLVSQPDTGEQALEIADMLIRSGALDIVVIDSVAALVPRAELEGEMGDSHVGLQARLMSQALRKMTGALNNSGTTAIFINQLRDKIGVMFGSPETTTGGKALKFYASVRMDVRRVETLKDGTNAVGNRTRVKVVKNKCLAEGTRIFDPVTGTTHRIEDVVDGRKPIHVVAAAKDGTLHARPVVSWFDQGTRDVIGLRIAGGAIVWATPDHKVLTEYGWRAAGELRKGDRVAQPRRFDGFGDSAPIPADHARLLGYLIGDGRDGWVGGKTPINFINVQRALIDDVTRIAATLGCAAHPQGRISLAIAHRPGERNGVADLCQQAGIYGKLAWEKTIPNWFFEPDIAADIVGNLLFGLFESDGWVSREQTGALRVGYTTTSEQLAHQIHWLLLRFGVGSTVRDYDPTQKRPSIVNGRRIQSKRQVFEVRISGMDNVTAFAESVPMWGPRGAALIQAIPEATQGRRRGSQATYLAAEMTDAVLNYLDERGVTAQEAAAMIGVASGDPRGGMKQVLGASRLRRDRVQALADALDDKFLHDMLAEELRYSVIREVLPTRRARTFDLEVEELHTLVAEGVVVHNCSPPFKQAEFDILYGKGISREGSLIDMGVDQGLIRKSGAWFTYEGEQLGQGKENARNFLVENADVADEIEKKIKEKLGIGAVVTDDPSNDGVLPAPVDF

cells = assay type: functional, cell-based
[11] = luciferase reporter signal reduction – luminescence, H4-C neuroglioblastoma cells, dose response (AID 2458); assay type: functional, cell-based;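 further: H4 neuroglioblastoma cells stably carrying a luciferase reporter gene fusion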
[12] = luciferase reporter signal suppression in cells – H4 neuroglioma cells, luminescence, dose response (AID 1990); assay type: functional, cell-based
[13] = HEK-293T viability loss after treatment – luminescence, T-cell screen hits, cytotoxicity control for TCR NF-kB inhibitor project, dose response (AID 489026); assay type: functional, cell-based;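 further: cells exposed to compound about 14 hours before the viability readout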
[14] = Luminescence Cell-Based Dose Response HTS to Identify Inhibitors of 5'UTR Stem-Loop Driven Prion Protein mRNA Translation in H4 Neuroglioblastoma Cells. [Related pubchem assays: 1827 (Project Summary), 1813 (Primary HTS)]; assay type: functional
[15] = alpha-synuclein stem-loop luciferase translation blockers – H4 neuroglioma cells, luminescence, confirmation (AID 1988); assay type: functional, cell-based
[16] = target: Eukaryotic translation initiation factor 4H (Homo sapiens, UniProt Q15056); test: inhibitors of translation initiation factor eIF4H – SAR follow-up (AID 435011); assay type: functional
[17] = alpha-synuclein stem-loop translation blockers – luminescence, H4 neuroglioblastoma cells, dose confirmation, confirmation (AID 2454); assay type: functional, cell-based;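 further: H4 neuroglioblastoma cells carrying an alpha-synuclein 5'UTR luciferase reporter; potency for inhibition of the luciferase signal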
[18] = target: Intestinal-type alkaline phosphatase (Homo sapiens, UniProt P09923); test: Dose Response confirmation of uHTS hits from a small molecule inhibitors of human intestinal alkaline phosphatase via a luminescent assay. [Related pubchem assays (depositor defined):AID2544, AID2574]; assay type: functional
H9c2 = test: cells; assay type: functional, cell-based; settings: Rattus norvegicus, H9c2, Myocardium
[19] = target: Glyceraldehyde-3-phosphate dehydrogenase (Homo sapiens, UniProt P04406)
[20] = target: T6, Tyrosine-protein phosphatase non-receptor type 22 (Homo sapiens, UniProt Q9Y2R2); test: SAR LYP1 Fluorescent Assay using OMFP substrate for In Vitro dose response studies - Set 3. [Related pubchem assays (depositor defined):AID1779, AID1784, AID2140, AID2686]; assay type: functional
[21] = target: T6, Tyrosine-protein phosphatase non-receptor type 22; test: inhibition of lymphoid tyrosine phosphatase LYP – biochemical, pCAP fluorogenic substrate, fluorescence, set 3, SAR follow-up (AID 449727); assay type: functional
[22] = target: Tyrosine-protein phosphatase non-receptor type 12 (Homo sapiens, UniProt Q05209); test: SAR Selectivity Analysis of small molecule inhibitors of PEST using pCAP in a fluorescence assay. [Related pubchem assays (depositor defined):AID1779, AID1784, AID2135]; assay type: functional
Sequence of Tyrosine-protein phosphatase non-receptor type 12 (Q05209 whole entry): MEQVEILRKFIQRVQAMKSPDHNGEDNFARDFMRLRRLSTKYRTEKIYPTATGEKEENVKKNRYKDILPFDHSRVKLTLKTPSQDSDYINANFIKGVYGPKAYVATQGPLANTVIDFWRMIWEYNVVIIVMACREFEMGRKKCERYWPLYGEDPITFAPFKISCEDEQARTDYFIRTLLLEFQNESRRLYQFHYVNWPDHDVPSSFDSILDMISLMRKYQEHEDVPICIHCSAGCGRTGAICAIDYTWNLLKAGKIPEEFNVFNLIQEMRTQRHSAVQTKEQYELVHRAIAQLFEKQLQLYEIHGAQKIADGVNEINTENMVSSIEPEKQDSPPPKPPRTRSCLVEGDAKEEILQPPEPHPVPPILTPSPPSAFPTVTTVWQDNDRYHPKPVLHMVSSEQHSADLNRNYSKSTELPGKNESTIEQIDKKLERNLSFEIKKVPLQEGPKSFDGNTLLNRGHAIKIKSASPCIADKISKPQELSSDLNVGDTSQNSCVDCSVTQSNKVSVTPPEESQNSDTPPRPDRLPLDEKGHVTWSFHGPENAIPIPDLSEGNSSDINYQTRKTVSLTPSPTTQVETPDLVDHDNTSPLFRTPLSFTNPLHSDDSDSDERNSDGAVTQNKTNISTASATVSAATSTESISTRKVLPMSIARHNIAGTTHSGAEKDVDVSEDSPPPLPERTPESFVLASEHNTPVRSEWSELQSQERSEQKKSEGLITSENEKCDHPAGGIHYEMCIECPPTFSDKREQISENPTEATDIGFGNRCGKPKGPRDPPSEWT

T6 sequence (Q9Y2R2 whole entry): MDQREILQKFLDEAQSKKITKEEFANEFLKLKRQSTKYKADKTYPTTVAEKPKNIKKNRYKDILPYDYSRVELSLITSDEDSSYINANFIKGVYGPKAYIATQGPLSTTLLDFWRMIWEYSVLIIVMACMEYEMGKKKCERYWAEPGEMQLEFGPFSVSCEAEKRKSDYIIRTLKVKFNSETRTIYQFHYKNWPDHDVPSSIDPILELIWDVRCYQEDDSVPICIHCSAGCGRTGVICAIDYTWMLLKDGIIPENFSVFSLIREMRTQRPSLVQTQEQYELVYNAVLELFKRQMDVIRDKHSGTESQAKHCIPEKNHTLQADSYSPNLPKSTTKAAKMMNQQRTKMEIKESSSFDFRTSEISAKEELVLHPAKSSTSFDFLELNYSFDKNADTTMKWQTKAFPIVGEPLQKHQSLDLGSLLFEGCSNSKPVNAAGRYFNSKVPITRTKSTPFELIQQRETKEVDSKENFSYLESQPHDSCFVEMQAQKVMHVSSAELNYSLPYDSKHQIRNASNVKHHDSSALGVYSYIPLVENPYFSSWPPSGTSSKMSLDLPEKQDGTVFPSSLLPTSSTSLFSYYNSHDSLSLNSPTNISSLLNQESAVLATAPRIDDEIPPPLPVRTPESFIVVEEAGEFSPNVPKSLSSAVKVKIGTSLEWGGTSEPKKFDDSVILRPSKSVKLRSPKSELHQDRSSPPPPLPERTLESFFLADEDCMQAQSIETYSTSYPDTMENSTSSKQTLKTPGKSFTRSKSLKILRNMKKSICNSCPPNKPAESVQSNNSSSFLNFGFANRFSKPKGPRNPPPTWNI
Sequence of G-protein coupled receptor 55 (Q9Y2T6 whole entry): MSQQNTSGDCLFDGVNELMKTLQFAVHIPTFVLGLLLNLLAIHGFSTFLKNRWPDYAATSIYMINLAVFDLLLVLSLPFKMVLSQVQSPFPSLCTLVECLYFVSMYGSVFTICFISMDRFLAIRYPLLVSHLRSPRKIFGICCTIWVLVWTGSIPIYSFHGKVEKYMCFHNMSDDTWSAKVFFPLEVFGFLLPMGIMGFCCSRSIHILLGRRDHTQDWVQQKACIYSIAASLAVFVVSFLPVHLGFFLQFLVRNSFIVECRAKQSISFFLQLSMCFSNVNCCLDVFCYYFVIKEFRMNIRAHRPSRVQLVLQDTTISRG
Sequence of Hexokinase (Q38C41 whole entry): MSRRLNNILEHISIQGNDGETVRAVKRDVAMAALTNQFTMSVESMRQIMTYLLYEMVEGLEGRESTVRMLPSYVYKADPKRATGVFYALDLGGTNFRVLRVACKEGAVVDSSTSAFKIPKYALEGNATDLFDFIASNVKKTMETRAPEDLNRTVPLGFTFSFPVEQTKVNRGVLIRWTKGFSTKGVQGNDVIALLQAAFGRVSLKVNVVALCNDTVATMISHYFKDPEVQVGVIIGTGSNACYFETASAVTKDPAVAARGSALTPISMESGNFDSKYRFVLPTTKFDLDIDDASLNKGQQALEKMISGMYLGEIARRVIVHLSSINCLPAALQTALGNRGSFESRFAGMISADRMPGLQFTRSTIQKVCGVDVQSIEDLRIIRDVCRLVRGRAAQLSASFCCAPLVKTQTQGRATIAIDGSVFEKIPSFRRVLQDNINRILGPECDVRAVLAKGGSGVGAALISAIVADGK
Sequence of Voltage-dependent T-type calcium channel subunit alpha-1H (O95180 whole entry): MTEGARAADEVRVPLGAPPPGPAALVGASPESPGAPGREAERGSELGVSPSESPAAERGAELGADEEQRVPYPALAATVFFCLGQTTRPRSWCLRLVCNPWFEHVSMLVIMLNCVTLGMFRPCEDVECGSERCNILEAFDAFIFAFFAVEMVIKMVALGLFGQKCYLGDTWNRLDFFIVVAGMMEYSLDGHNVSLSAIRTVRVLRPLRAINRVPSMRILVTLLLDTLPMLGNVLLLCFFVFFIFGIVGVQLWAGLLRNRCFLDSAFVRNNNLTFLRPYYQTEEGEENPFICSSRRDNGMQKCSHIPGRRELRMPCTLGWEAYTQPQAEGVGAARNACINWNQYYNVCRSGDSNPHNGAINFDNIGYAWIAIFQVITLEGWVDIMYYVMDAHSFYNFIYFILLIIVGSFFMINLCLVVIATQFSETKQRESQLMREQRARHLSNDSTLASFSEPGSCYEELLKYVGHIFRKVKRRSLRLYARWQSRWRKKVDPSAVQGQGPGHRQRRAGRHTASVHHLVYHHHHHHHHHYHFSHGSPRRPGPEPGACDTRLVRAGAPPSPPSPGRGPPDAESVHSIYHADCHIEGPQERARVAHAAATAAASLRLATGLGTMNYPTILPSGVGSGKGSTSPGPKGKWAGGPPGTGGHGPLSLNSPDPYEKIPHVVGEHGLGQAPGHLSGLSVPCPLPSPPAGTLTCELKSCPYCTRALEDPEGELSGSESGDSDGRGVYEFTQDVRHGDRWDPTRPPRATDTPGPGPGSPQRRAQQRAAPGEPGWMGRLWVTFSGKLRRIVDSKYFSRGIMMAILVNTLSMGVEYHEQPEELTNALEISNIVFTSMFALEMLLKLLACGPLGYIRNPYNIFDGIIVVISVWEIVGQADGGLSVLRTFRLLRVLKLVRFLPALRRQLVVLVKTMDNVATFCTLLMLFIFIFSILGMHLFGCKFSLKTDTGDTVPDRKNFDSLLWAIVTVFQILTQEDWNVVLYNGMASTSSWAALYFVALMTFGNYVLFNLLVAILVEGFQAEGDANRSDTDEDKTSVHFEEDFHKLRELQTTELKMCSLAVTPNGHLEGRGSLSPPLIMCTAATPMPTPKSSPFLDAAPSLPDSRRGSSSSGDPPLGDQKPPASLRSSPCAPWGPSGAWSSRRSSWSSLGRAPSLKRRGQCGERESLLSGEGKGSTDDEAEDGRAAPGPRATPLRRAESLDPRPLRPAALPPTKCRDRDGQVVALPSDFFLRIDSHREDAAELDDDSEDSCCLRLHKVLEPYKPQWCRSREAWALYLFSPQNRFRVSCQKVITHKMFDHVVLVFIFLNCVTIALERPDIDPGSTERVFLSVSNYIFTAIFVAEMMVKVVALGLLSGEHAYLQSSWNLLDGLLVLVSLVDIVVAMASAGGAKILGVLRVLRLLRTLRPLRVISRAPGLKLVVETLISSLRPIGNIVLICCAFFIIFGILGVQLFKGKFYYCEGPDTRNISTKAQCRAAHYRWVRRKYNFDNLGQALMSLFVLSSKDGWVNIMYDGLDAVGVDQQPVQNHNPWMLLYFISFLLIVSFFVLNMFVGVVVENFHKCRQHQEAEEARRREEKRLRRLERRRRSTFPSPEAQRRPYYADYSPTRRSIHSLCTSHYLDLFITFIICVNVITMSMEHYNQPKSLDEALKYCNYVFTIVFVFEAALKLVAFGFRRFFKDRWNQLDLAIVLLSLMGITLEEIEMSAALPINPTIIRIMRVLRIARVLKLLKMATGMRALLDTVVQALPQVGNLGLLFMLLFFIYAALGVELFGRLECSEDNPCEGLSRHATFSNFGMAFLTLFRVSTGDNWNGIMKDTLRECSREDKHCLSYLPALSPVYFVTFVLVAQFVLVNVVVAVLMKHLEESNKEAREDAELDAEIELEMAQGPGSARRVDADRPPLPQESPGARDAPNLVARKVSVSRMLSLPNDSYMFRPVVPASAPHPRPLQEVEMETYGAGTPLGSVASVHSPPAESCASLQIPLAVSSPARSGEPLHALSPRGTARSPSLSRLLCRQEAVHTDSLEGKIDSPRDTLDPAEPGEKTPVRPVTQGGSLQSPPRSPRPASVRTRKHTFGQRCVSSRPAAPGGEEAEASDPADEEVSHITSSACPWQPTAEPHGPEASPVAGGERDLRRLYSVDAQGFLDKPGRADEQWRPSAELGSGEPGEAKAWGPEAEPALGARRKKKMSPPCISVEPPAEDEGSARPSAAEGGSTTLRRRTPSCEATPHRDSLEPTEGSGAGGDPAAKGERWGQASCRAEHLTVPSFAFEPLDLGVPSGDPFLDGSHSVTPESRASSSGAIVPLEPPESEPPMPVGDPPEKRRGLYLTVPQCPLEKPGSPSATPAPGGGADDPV

## O=C(Cn1sc2ccccc2c1=O)Nc1ccc(Br)cc1
Hexokinase
  IC50: > 25 µM (inactive)
[1]
  IC50: 24.2 µM (inactive)
[2]
  IC50: 10.2 µM (inactive)

## Clc1nss/c1=N\C1CCC1
[3]
  IC50: 15.6 µM (active)
Phosphomannomutase 2
  IC50: 76.3 µM (active)

## O=c1c2[nH]c3ccc(F)cc3c2ncn1CCc1ccc(O)c(O)c1
[4]
  IC50: 0.253 µM (active)
[5]
  IC50: 1.04 µM (active)

## O=C(COc1ccc(F)cc1Cl)Nc1nnc(-c2ccc3c(c2)CCCC3)o1
[6]
  EC50: 10 µM (active)

## c1ccc(-c2nc(N3CCCCCC3)nc(-n3ccnc3)n2)cc1
[7]
  AC50: 63.8 µM (active)
[8]
  CC50: 20.1 µM (active)
Streptococcus
  EC50: 7.9 µM (active)
[9]
  EC50: 4.08 µM (active)
Streptokinase A
  EC50: > 150 µM (not active)
[10]
  IC50: 3.77 µM (active)
Protein RecA
  EC50: > 380 µM (inactive)

## Cc1ccc(N2C(=O)c3cccc4c(N)ccc(c34)C2=O)c2cccnc12
cells
  EC50: 0.101 µM (active)
[11]
  EC50: 0.111 µM (active)
[12]
  EC50: < 0.1 µM (active)
[13]
  IC50: > 80 µM (inactive)
[14]
  EC50: < 0.1 µM (active)
[15]
  EC50: < 0.1 µM (active)
[16]
  IC50: > 100 µM (inactive)
[17]
  EC50: 0.124 µM (active)

## CC(=O)CCc1ccc(Oc2nc(-c3cccnc3)nc3ccccc23)cc1
[18]
  IC50: > 100 µM (inactive)
H9c2
  IC50: > 79 µM (inactive)

## COc1cc(/C=C2\SC(N(C)c3ccc(O)cc3)=NC2=O)ccc1OCC(=O)O
[19]
  IC50: > 100 µM (not active)
[20]
  IC50: > 100 µM (inactive)
[21]
  IC50: > 100 µM (inactive)
[22]
  IC50: > 100 µM (inactive)
